Consider seven molecules from publication PMC12473540, “Cytotoxic Activity of Chemical Constituents of Clerodendrum glabrum and Combretum nelsonii Root Extracts Against Selected Cancer Cell Lines” (Plants, 2025).

For data set [1], the system named is human colon carcinoma SW620 cell lines. The note with it: stigmasterol, in Table 2; cited from earlier work.
The next data set has as its system colon cancer cell Caco-2. On the set-up: method as in doi:10.4314/ecajps.v11i2.44769. The note with it: stigmasterol; cited from earlier work.
The test system of data set [2] is hormone receptor positive breast cancer (MCF-7) cells. Kind of data set: MTT cytotoxicity assay on MCF-7 cells. Particulars: for CC50: Homo sapiens, MCF7, 48 h, read-out: MCF-7 (LC50); for Selectivity Index MCF-7: LC50 of Vero cells divided by LC50 of MCF-7. How it is done: (§1) The antiproliferative activity of the crude extracts and compounds isolated from C. glabrum and C. nelsonii were tested against heterogenous human epithelial colorectal adenocarcinoma (Caco-2) and hormone receptor positive breast cancer (MCF-7) cells using the MTT assay. The Vero African green monkey kidney cells were used as the non-cancerous cell line for comparison. Doxorubicin was used as the positive control.
The cytotoxic activity of extracts and isolated compounds was evaluated using the MTT assay against colorectal adenocarcinoma (Caco-2, ATCC® HTB-37™), breast adenocarcinoma (MCF-7, ATCC® HTB-22™), and non-cancerous monkey kidney cells (Vero, ATCC® CCL-81™). Cell culture and maintenance were carried out following standard protocols. […] Doxorubicin was used as a positive control, and DMSO as a negative control. Cell viability was determined by MTT reduction and absorbance was measured at 570 nm. LC50 values were calculated, and the selectivity index(SI) was obtained by dividing LC50 values of Vero cells by those of the cancer cell lines.
(Tetrazolium assays rely on reduction of a dye to a coloured formazan, in cell work by metabolically active cells.)

In another data set the test system is MCF-7. The note with it: cited from earlier work.
Data set [3] in a line: MTT cytotoxicity assay on Caco-2 cells. Particulars: African green monkey (Vero) and human (Caco-2), Caco-2. As for the experimental part:
as §1
(§2) The cytotoxic activity of extracts and isolated compounds was evaluated using the MTT assay against colorectal adenocarcinoma (Caco-2, ATCC® HTB-37™), breast adenocarcinoma (MCF-7, ATCC® HTB-22™), and non-cancerous monkey kidney cells (Vero, ATCC® CCL-81™). Cell culture and maintenance were carried out following standard protocols. The cells were seeded in 96-well plates and exposed to varying concentrations of extracts (0.025–1 mg/mL) and compounds (0.2–200 µg/mL) for 48 h. Doxorubicin was used as a positive control, and DMSO as a negative control. Cell viability was determined by MTT reduction and absorbance was measured at 570 nm. LC50 values were calculated, and the selectivity index(SI) was obtained by dividing LC50 values of Vero cells by those of the cancer cell lines.

The subject of data set [4] is human epithelial colorectal adenocarcinoma (Caco-2) cells. In words: MTT cytotoxicity assay on Caco-2 cells. The note with it: for CC50: Homo sapiens, Caco-2, 48 h, read-out: Caco-2 (LC50). How it is done: as §1, §2
The nature of another data set: in vitro. As for the experimental part:
as §1, §2

The subject of data set [5] is triple negative breast cancer HCC70 cells. On the set-up: method as in doi:10.4314/ecajps.v11i2.44769. The note with it: stigmasterol; cited from earlier work.
For another data set, the system named is colon (KM20L2). Also noted: method as in ref 50 = [50]; 50. Akim A. Biological Activities of Oryzanol, Stigmasterol and Microminutinin on Human Breast Cancer Cell-Line, MCF-7 Ph.D. Thesis University Putra Malaysia Serdang, Malaysia 2004. Particulars: cited from earlier work.
The next data set relates to lung-NCS (NCI-H460). On the set-up: method as in ref 50 = [50]; 50. Akim A. Biological Activities of Oryzanol, Stigmasterol and Microminutinin on Human Breast Cancer Cell-Line, MCF-7 Ph.D. Thesis University Putra Malaysia Serdang, Malaysia 2004. Particulars: cited from earlier work.
In the next data set the test system is leukemia (P388). On the set-up: method as in ref 50 = [50]; 50. Akim A. Biological Activities of Oryzanol, Stigmasterol and Microminutinin on Human Breast Cancer Cell-Line, MCF-7 Ph.D. Thesis University Putra Malaysia Serdang, Malaysia 2004. The note with it: cited from earlier work.
Another data set has as its system tubulin. Also noted: method as in PMID 12059907, PMID 10893310. Particulars: combretastatin A-1; read-out: Tubulin inhibition IC50; cited from earlier work.
Another data set concerns prostate (DU-145). Also noted: method as in ref 50 = [50]; 50. Akim A. Biological Activities of Oryzanol, Stigmasterol and Microminutinin on Human Breast Cancer Cell-Line, MCF-7 Ph.D. Thesis University Putra Malaysia Serdang, Malaysia 2004. The note with it: cited from earlier work.
The subject of the next data set is pancreas-a (BXPC-3). Also noted: method as in ref 50 = [50]; 50. Akim A. Biological Activities of Oryzanol, Stigmasterol and Microminutinin on Human Breast Cancer Cell-Line, MCF-7 Ph.D. Thesis University Putra Malaysia Serdang, Malaysia 2004. Particulars: cited from earlier work.
Data set [6] concerns prostate cancer cells (LNCaP). Also noted: method as in ref 45 (ref 58). The note with it: royleanone; ref 45 (ref 58); read-out: Literature report LNCaP IC50; cited from earlier work.
The test system of the next data set is human colon HCT116. Also noted: method as in doi:10.4103/pm.pm_265_20. The note with it: royleanone, result in words; cited from earlier work.
In data set [7] the test system is gastric adenocarcinoma AGS cells. Particulars: cited from earlier work.
Data set [8] relates to breast MDA-MB-231 cancer cell lines. On the set-up: method as in doi:10.4103/pm.pm_265_20. Particulars: royleanone; read-out: Literature report MDA-MB-231 IC50; cited from earlier work.
Data set [9] deals with human liver hepatocellular carcinoma HepG2 cells. Also noted: method as in doi:10.18063/cp.v1i4.255, PMID 20614808, PMID 25355727, doi:10.1076/phbi.37.2.148.6082. The note with it: ferruginol; read-out: Literature report HepG2 (IC50); cited from earlier work.
Data set [10] deals with colon (COL-2) cancer cells. On the set-up: method as in doi:10.18063/cp.v1i4.255, PMID 20614808, PMID 25355727, doi:10.1076/phbi.37.2.148.6082. The note with it: ferruginol; cited from earlier work.
The test system of data set [11] is prostate cancer PC3 cells. Also noted: method as in doi:10.18063/cp.v1i4.255, PMID 20614808, PMID 25355727, doi:10.1076/phbi.37.2.148.6082. The note with it: ferruginol; read-out: Literature report PC3 (IC50); cited from earlier work.
Where [12] appears, read: African green monkey, Vero kidney cells (ATCC CCL-81), non-cancerous.

Each structure is given as a SMILES string. In brackets after ≈: the same amount, converted by molar mass. Where two headings read alike, the source gives them in different places.

The IC50 is the point on the concentration scale where inhibition reaches its midpoint. With `CC[C@H](C=C[C@@H](C)[C@H]1CC[C@H]2[C@@H]3CC=C4C[C@@H](O)CC[C@]4(C)[C@H]3CC[C@]12C)C(C)C` [Compound 6, stigmasta-5,22-dien-3β-ol], the IC50 in data set [1] was 2.79 µM; in the data set with colon cancer cell Caco-2, 132 µM; with MCF-7 (stigmasterol, read-out: MCF-7 IC50), more than 500 µM; in data set [5], more than 500 µM. Moreover, the CC50 in data set [2] and in data set [4] was more than 200 µg/mL each time. For the same molecule, the “Selectivity Index MCF-7” value in data set [2] is reported as less than 0.690. Further, in data set [3], the selectivity ratio at 48 h is less than 0.69. The CC50 at 48 h in “in vitro” was found to be 137 µg/mL (≈ 332 µM).
Take `COc1ccc(/C=C\c2cc(OC)c(OC)c(OC)c2)c(O)c1O` [Compound 4, 3,4,5-trimethoxy-2′,3′hydroxyl-4′methoxy-stilbene]: in [2], the CC50 was found to be 72 µg/mL (≈ 217 µM) and the “Selectivity Index MCF-7” value was 0.210. In the data set on colon (KM20L2), the “KM20L2 GI50” value is listed as 0.061 µg/mL. The “NCI-H460 GI50” value in the data set on lung-NCS (NCI-H460) was 0.74 µg/mL. In “in vitro”, this molecule displayed a CC50 at 48 h of 15.3 µg/mL (≈ 46 µM). Also, the “P388 GI50” value in the data set on leukemia (P388) is 0.3 µg/mL. Besides, in the data set with tubulin, the IC50 was 1.1 µM. The “DU-145 GI50” value in the data set with prostate (DU-145) is reported as 0.017 µg/mL. Also, the “BXPC-3 GI50” value with pancreas-a (BXPC-3) is 4.4 µg/mL.
As for `COc1ccc(C=Cc2cc(OC)c(OC)c(OC)c2)c(OC2OC(CO)C(O)C(O)C2O)c1O` [Compound 5a, combretastatin A-1-2′-O-β-D-glucopyranoside], in data set [2], the CC50 turned out to be 44.1 µg/mL (≈ 89.2 µM) and the “Selectivity Index MCF-7” value worked out at 1.90. Also, the CC50 at 48 h in “in vitro” (setting [12]) amounted to 83.8 µg/mL (≈ 169 µM).
Regarding `COc1ccc(CCc2cc(OC)c(OC)c(OC)c2)c(OC2OC(CO)C(O)C(O)C2O)c1O` [Compound 5b, combretastatin B-1-2′-O-β-D-glucopyranoside], in [2], the CC50 was determined as 44.1 µg/mL (≈ 88.8 µM) and the “Selectivity Index MCF-7” value turned out to be 1.90. The CC50 at 48 h in “in vitro” (setting [12]) was 83.8 µg/mL (≈ 169 µM).
For the molecule `COc1cccc2c1C(=O)c1c(O)c3c(c(O)c1C2=O)C[C@@](O)(C(=O)CO)C[C@@H]3O[C@H]1C[C@H](N)[C@H](O)[C@H](C)O1` [Doxorubicin, reference compound], in data set [2], the CC50 was 3.1 µg/mL (≈ 5.7 µM) and the “Selectivity Index MCF-7” value is recorded as 2.20. For the same molecule, the selectivity ratio at 48 h in data set [3] stood at 9.08. The CC50 in data set [4] was 0.76 µg/mL (≈ 1.4 µM). In the data set “in vitro” (African green monkey), this molecule came in with a CC50 at 48 h of 6.9 µg/mL (≈ 12.7 µM).
For the molecule `CC(C)C1=C(O)C(=O)C2=C(CC[C@H]3C(C)(C)CCC[C@]23C)C1=O` [Compound 2, 12-hydroxy-8,12-abietadiene-11,14-dione], the CC50 in [2] and in data set [4] was more than 200 µg/mL each time. For the same molecule, the “Selectivity Index MCF-7” value in data set [2] is less than 0.150. Moreover, the selectivity ratio at 48 h in data set [3] is less than 0.15. Moreover, in the data set “in vitro”, the CC50 at 48 h was 30.7 µg/mL (≈ 97 µM). Besides, the IC50 in data set [6] was 12.5 µM; in data set [7] (royleanone, read-out: Literature report AGS IC50), 18 µM; in data set [8], more than 250 µM. Further, the “Literature report colon HCT116” value in the data set with human colon HCT116 is on record as “variable”.
Take `CC(C)c1cc2c(cc1O)[C@@]1(C)CCCC(C)(C)[C@@H]1CC2` [Compound 1, 12-hydroxy-abieta-8,11,13-triene]: the values for the CC50 in data set [2] and in [4] were 48.4 µg/mL (≈ 169 µM) and 24.3 µg/mL (≈ 84.8 µM), respectively. The IC50 was 12 µM in the data set on MCF-7 (ferruginol, read-out: Literature report MCF-7 (IC50)); 68.5 µM in [9]; 55 µM in data set [11]; 27 µM in [7] (ferruginol, read-out: Literature report AGS (IC50)). The “Selectivity Index Caco-2” value in [4] (Caco-2) was 8.23 × 10^−6. Further, the CC50 at 48 h in the data set “in vitro” (African green monkey) was 0.0002 µg/mL (≈ 0.000698 µM). In addition, the “Literature report colon (COL-2) ED50” value in [10] was more than 20 µg/mL.
